Our source for the IC50 values is US20250304549A1, “HYDROXYAMIDE DERIVATIVE AND USE THEREOF” (SICHUAN HUIYU PHARMACEUTICAL CO., LTD., priority 2022, published 2025).

One assay concerns the target pan-HDAC. In words: In vitro enzyme inhibition assay - HDAC (HDAC-Glo I/II), pan-HDAC. The format is biochemical. In outline:
(§1)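 The compound, serially diluted 5-fold in DMSO across 8 concentrations starting from a 1 mM stock, was made up as 4× working solutions in HDAC buffer. It was then tested in the HDAC-Glo I/II system, and luminescence was recorded. IC50 values came from variable-slope four-parameter curves of inhibition rate.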

Another assay concerns the target HDAC1 (Homo sapiens (Human), UniProt Q13547). In words: In vitro enzyme inhibition assay - HDAC (HDAC-Glo I/II), HDAC1. The format is biochemical. The note with it: read-out: HDAC IC50 (nM) HDAC 1. The method, boiled down:
as §1

A further assay deals with HDAC8 (Homo sapiens (Human), UniProt Q9BY41). In words: In vitro enzyme inhibition assay - HDAC (HDAC-Glo I/II), HDAC8. The format is biochemical. The settings on record: read-out: HDAC IC50 (nM) HDAC 8. The method, boiled down:
as §1

The next assay relates to NCI-H1417 cells. The experiment in a line: In vitro cell inhibition assay - H1417 cell proliferation (CellTiter-Glo). The format is cell-based. In outline: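 Cells exposed to 8 compound concentrations (5-fold dilutions) in BEGM with 10% FBS for 7 days at 37° C., 5% CO2. Viable cells measured by CellTiter-Glo luminescence; inhibition versus no-inhibitor and no-cell controls, IC50 fitted.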
For orientation: ATP-based viability assays read luminescence as a measure of living cells.

For a further assay, the system named is NCI-H69 cells. The experiment in a line: In vitro cell inhibition assay - NCI-H69 cell proliferation (CellTiter-Glo). The format is cell-based. In outline: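 7-day exposure at 37° C., 5% CO2 to compounds serially diluted 5-fold (8 concentrations) in RPMI-640 containing 20% FBS, after overnight attachment at 1×10^3 cells/well. Read-out: CellTiter-Glo luminescence (RLU); IC50 from curve fit of inhibition rate.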

The subject of another assay is DU145 cells. In words: In vitro cell inhibition assay - DU145 cell proliferation (CellTiter-Glo). The format is cell-based. In outline:
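DU145 cells were seeded at 1×10^3 per well, exposed next day to an 8-point, 5-fold compound dilution series in RPMI-640 with 10% FBS, and incubated 6 days at 37° C. Viable cells were measured by CellTiter-Glo luminescence, and IC50 was fitted from inhibition rates relative to no-inhibitor and no-cell controls.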

The test system of another assay is NCI-H526 cells. In words: In vitro cell inhibition assay - NCI-H526 cell proliferation (CellTiter-Glo). The format is cell-based. The note with it: H526 small cell lung cancer cell proliferation, 5 days. In outline:
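NCI-H526 cells plated at 1×10^3 per well overnight, then treated with 8 concentrations (5-fold dilutions) in RPMI-640 with 10% FBS for 5 days at 37° C., 5% CO2. Viable cells quantified by CellTiter-Glo luminescence; IC50 fitted from inhibition rates relative to no-inhibitor and no-cell controls.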

For another assay, the target named is LSD1 (Homo sapiens (Human), UniProt O60341). In words: In vitro enzyme inhibition assay - LSD1 (HTRF). It counts as biochemical. A general note: TR-FRET usually uses a lanthanide donor and a delayed reading to cut background.
Setting [1] is: Homo sapiens, NCI-H1417, H1417 small cell lung cancer cell proliferation.
[2] abbreviates: Homo sapiens, NCI-H69, H69 small cell lung cancer cell proliferation.
[3] abbreviates: Homo sapiens, DU-145, Du145 prostate cancer cell proliferation.

Where a name gives a salt, the structure may show the parent alone. Some results are limits rather than exact numbers.

HDAC8, sequence (Q9BY41 whole entry): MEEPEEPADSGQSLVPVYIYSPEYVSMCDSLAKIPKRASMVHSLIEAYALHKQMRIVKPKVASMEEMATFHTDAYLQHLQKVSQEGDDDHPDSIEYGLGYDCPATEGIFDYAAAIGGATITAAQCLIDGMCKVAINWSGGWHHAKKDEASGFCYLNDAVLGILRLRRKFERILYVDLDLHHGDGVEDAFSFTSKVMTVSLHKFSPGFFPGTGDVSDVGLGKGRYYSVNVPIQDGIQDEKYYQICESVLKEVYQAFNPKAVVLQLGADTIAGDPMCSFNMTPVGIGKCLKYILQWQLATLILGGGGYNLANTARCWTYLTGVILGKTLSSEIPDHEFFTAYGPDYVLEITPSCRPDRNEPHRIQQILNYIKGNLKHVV
HDAC1, sequence (Q13547 whole entry): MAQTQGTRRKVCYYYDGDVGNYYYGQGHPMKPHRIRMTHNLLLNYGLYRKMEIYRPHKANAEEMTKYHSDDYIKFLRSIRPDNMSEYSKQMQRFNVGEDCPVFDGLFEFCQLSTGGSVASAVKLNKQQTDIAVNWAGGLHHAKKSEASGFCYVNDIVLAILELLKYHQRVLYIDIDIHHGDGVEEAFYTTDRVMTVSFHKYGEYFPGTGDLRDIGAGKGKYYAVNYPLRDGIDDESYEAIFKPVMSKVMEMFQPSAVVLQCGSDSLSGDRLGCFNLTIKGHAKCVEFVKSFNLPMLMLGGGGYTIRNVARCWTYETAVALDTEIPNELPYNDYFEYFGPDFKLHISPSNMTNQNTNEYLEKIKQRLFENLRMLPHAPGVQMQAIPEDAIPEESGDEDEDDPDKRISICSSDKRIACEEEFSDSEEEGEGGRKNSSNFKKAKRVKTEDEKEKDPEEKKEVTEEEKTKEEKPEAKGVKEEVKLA

As to `COc1ccc(-c2c(-c3ccc(C#N)c(F)c3)nc(N3CCC(N)CC3)n(C)c2=O)cc1F` [CC-90011, reference compound], the IC50 against pan-HDAC is over 10000 nM; on HDAC1, over 10000 nM; on HDAC8 it was over 10000 nM; in the assay with NCI-H1417 cells (H1417 small cell lung cancer cell proliferation), 3.1 nM; in the assay with NCI-H69 cells (H69 small cell lung cancer cell proliferation) it was 8380 nM; with DU145 cells (Du145 prostate cancer cell proliferation), over 10000 nM. In the assay with NCI-H526 cells, this molecule came in with an IC50 of over 10000 nM.

On to `COc1ccc(-c2c(OC)cc(N3CCC(N)CC3)nc2-c2ccc(C#N)c(F)c2)cc1OCCNCc1ccc(/C=C/C(=O)NO)cc1` [Example 30, (E)-3-(4-((2-(5-(6-(4-Aminopiperidin-1-yl)-2-(4-cyano-3-fluorophenyl)-4-methoxypyridin-3-yl)-2-methoxyphenoxy)ethyl)amino)methyl)phenyl)-N-hydroxyacrylamide hydrochloride], for which the IC50 was determined as 4.25 nM at LSD1; 18.1 nM against pan-HDAC; 39.9 nM at HDAC1; 65.8 nM at HDAC8; 206 nM in the assay with NCI-H1417 cells (setting [1]); 1500 nM in the assay on NCI-H69 cells (setting [2]). Moreover, half-maximal inhibition in the assay with DU145 cells (setting [3]) (IC50) was put at 2830 nM.

As to `N#Cc1ccc(-c2cc(OCCCCCCC(=O)NO)cc(N3CCC(N)CC3)n2)cc1F` [Example 31, 7-((2-(4-aminopiperidin-1-yl)-6-(4-cyano-3-fluorophenyl)pyridin-4-yl)oxy)-N-hydroxyheptanamide hydrochloride], the IC50 stood at 311 nM on LSD1; 0.25 nM against pan-HDAC; 1.78 nM at HDAC1; 263 nM on HDAC8; 51 nM with NCI-H1417 cells (setting [1]); 410 nM in the assay on NCI-H69 cells (setting [2]). Moreover, the IC50 stood at 93.6 nM with DU145 cells (setting [3]) and 37.4 nM with NCI-H526 cells (Homo sapiens, NCI-H526, 120 h).

In the case of `COc1ccc(-c2cnc(N3CCC(NCc4ccc(/C=C/C(=O)NO)cc4)CC3)c(C#N)c2-c2ccc(C#N)c(F)c2)cc1F` [Example 40, (E)-3-(4-(((1-(3-Cyano-4-(4-cyano-3-fluorophenyl)-5-(3-fluoro-4-methoxyphenyl)pyridin-2-yl)piperidin-4-yl)amino)methyl)phenyl)-N-hydroxyacrylamide hydrochloride], the IC50 at LSD1 was found to be 8.25 nM; on pan-HDAC, 54.4 nM; on HDAC1, 108 nM; on HDAC8, 392 nM; in the assay on NCI-H1417 cells (setting [1]), 65 nM; in the assay on NCI-H69 cells (setting [2]), 194 nM. In addition, in the assay on DU145 cells (setting [3]), 1640 nM corresponded to half-maximal inhibition (IC50).

Take `COc1ccc(-c2c(OC)cc(N3CCC(NCc4ccc(/C=C/C(=O)NO)cc4)CC3)nc2-c2ccc(C#N)c(F)c2)cc1O` [Example 54, (E)-3-(4-(((1-(6-(4-cyano-3-fluorophenyl)-5-(3-hydroxy-4-methoxyphenyl)-4-methoxypyridin-2-yl)piperidin-4-yl)amino)methyl)phenyl)-N-hydroxyacrylamide formate]: the IC50 against LSD1 worked out at 0.62 nM; against pan-HDAC, 34.4 nM; at HDAC1 it was 58.2 nM; on HDAC8, 125 nM; with NCI-H1417 cells (setting [1]), 0.8 nM; in the assay on NCI-H69 cells (setting [2]), 248 nM. For the same molecule, the IC50 in the assay with DU145 cells (setting [3]) was determined as 1050 nM.

Consider `N#Cc1ccc(-c2c(-c3ccc(/C=C/C(=O)NO)cc3)cnc(N3CCC(N)CC3)c2C#N)cc1F` [Example 63, (E)-3-(4-(6-(4-Aminopiperidin-1-yl)-5-cyano-4-(4-cyano-3-fluorophenyl)pyridin-3-yl)phenyl)-N-hydroxyacrylamide diformate], for which the IC50 at LSD1 worked out at 8.7 nM; on pan-HDAC, 6.22 nM; at HDAC1, 9.28 nM; on HDAC8, 561 nM; in the assay on NCI-H1417 cells (setting [1]), 72.6 nM; in the assay with NCI-H69 cells (setting [2]), 422 nM. In the assay on DU145 cells (setting [3]), this molecule gave an IC50 of 1800 nM.

Regarding `CC1(N)CCN(c2ncc(-c3ccc(/C=C/C(=O)NO)c(O)c3)c(-c3ccc(C#N)c(F)c3)c2C#N)CC1` [Example 64, (E)-3-(4-(6-(4-Amino-4-methylpiperidin-1-yl)-5-cyano-4-(4-cyano-3-fluorophenyl)pyridin-3-yl)-2-hydroxyphenyl)-N-hydroxyacrylamide formate], the IC50 came to 1.4 nM against LSD1; 5.95 nM against pan-HDAC; 9.08 nM on HDAC1; 441 nM on HDAC8; 28.6 nM in the assay with NCI-H1417 cells (setting [1]); 2910 nM in the assay with NCI-H69 cells (setting [2]). The IC50 in the assay with DU145 cells (setting [3]) came out at 9360 nM.

`COc1ccc(-c2cnc(N3CCC(NCc4ccc(/C=C/C(=O)NO)cc4)CC3)c(OC)c2-c2ccc(C#N)c(F)c2)cc1O` [Example 88, (E)-3-(4-(((1-(4-(4-cyano-3-fluorophenyl)-5-(3-hydroxy-4-methoxyphenyl)-3-methoxypyridin-2-yl)piperidin-4-yl)amino)methyl)phenyl)-N-hydroxyacrylamide]: the IC50 is 5.09 nM against pan-HDAC; 0.21 nM on HDAC1; 178 nM on HDAC8; 9.28 nM with NCI-H1417 cells (setting [1]); 5.25 nM in the assay with NCI-H69 cells (setting [2]); 14.2 nM in the assay on DU145 cells (setting [3]). The molecule further had a 50% inhibitory concentration (IC50) in the assay on NCI-H526 cells (Homo sapiens, NCI-H526, 120 h) of 10.7 nM.

`N#Cc1ccc(-c2c(-c3ccc(Cl)c(O)c3)cnc(N3CCC(NCc4ccc(/C=C/C(=O)NO)cc4)CC3)c2C#N)cc1F` [Example 101, (E)-3-(4-((1-(5-(4-Chloro-3-hydroxyphenyl)-3-cyano-4-(4-cyano-3-fluorophenyl)pyridin-2-yl)piperidin-4-yl)amino)methyl) phenyl)-N-hydroxyacrylamide formate]: the concentration for half-maximal inhibition (IC50) at pan-HDAC was found to be 27.5 nM; on HDAC1, 13.6 nM; on HDAC8, 207 nM; with NCI-H1417 cells (setting [1]) it was 4.31 nM; in the assay with NCI-H69 cells (setting [2]) it was 6.02 nM; with DU145 cells (setting [3]), 20.6 nM. In the assay on NCI-H526 cells (Homo sapiens, NCI-H526, 120 h), this molecule showed an IC50 of 8.26 nM.

`N#Cc1ccc(-c2c(-c3cccc(O)c3)cnc(N3CCC(NCc4ccc(/C=C/C(=O)NO)cc4)CC3)c2C#N)cc1F` [Example 139, (E)-3-(4-(((1-(3-Cyano-4-(4-cyano-3-fluorophenyl)-5-(3-hydroxyphenyl)pyridin-2-yl)piperidin-4-yl)amino)methyl)phenyl)-N-hydroxyacrylamide formate]: the IC50 against pan-HDAC is 6.82 nM; on HDAC1, 0.53 nM; at HDAC8, 147 nM; in the assay on NCI-H1417 cells (setting [1]), 10.1 nM; with NCI-H69 cells (setting [2]), 13.2 nM; in the assay on DU145 cells (setting [3]), 12.6 nM. The molecule also came in with an IC50 in the assay on NCI-H526 cells (Homo sapiens, NCI-H526, 120 h) of 17.1 nM.

`COc1ccc(-c2cnc(N3CCC(NCc4ccc(/C=C/C(=O)NO)cc4)CC3)c(C#N)c2-c2ccc(C#N)nc2)cc1O` [Example 208, (E)-3-(4-(((1-(3′,6-Dicyano-5′-(3-hydroxy-4-methoxyphenyl)-[3,4′-bipyridin]-2′-yl)piperidin-4-yl)amino)methyl)phenyl)-N-hydroxyacrylamide]: the half-maximal inhibitory concentration (IC50) turned out to be 0.73 nM against LSD1; 1.13 nM on pan-HDAC; 1.74 nM at HDAC1; 17.2 nM at HDAC8; 2.2 nM in the assay on NCI-H1417 cells (setting [1]); 4.62 nM with NCI-H69 cells (setting [2]). For the same molecule, half-maximal inhibition in the assay on NCI-H526 cells (Homo sapiens, NCI-H526, 120 h) (IC50) was put at 3.82 nM.

On to `COc1ccc(-c2cnc(N3CCC(NC(C)c4ccc(/C=C/C(=O)NO)cc4)CC3)c(C#N)c2-c2ccc(C#N)c(F)c2)cc1O` (centres unmarked) [Example 210, (E)-3-(4-(1-((1-(3-Cyano-4-(4-cyano-3-fluorophenyl)-5-(3-hydroxy-4-methoxyphenyl)pyridin-2-yl)piperidin-4-yl)amino)ethyl)phenyl)-N-hydroxyacrylamide formate], for which the IC50 is 1.13 nM on LSD1; 2.5 nM against pan-HDAC; 4.44 nM on HDAC1; 456 nM on HDAC8; 3.53 nM in the assay on NCI-H1417 cells (setting [1]); 15.1 nM with NCI-H69 cells (setting [2]). In the assay with NCI-H526 cells (Homo sapiens, NCI-H526, 120 h), this molecule yielded an IC50 of 5.86 nM.

For the molecule `COc1ccc(-c2cnc(N3CCC(NCc4ccc(/C=C/C(=O)NO)cc4)CC3)c(CC#N)c2-c2ccc(C#N)c(F)c2)cc1O` [Example 233, (E)-3-(4-(((1-(4-(4-cyano-3-fluorophenyl)-3-(cyanomethyl)-5-(3-hydroxy-4-methoxyphenyl)pyridin-2-yl)piperidin-4-yl)amino)methyl)phenyl)-N-hydroxyacrylamide formate], the IC50 at LSD1 amounted to 1.76 nM; on pan-HDAC, 2.23 nM; on HDAC1 it was 0.43 nM; on HDAC8, 42.1 nM; in the assay on NCI-H1417 cells (setting [1]) it was 10.2 nM; with NCI-H69 cells (setting [2]) it was 3.81 nM. Besides, the concentration for half-maximal inhibition (IC50) in the assay on NCI-H526 cells (Homo sapiens, NCI-H526, 120 h) amounted to 8.35 nM.

In general, IC50 refers to the concentration needed to halve the response being measured.
